Data from patent US7795381B2, “Methods and materials for cancer treatment” (Mayo Foundation for Medical Education and Research, priority 2001, dated 2010).
Entries after “also recorded” stand apart in the source; their conditions may differ. No end group written: not given here.

Columns and labels:
Type in all cases: cell-based, human
CD4+ T cells (HTL lines) [1] = assay: T-cell proliferative response to polypeptide, dose curve ([3H]-thymidine); settings: for polypeptide concentration required to obtain 50% of the maximal proliferation: HLA-DR7-restricted HTL lines, polypeptide presented by autologous PBMC
Procedure: Polypeptides gp10074-89, gp100175-189 and gp100576-590 were tested for their capacity to stimulate CD4^+ T cells obtained from four healthy, MHC-typed individuals in primary in vitro cultures using polypeptide-pulsed autologous dendritic cells (DC). The method used to generate tumor antigen-reactive HTL lines and clones using polypeptide-stimulated peripheral blood mononuclear cells (PBMC) was recently described in detail (Kobayashi H et al., Cancer Res 60:5228 (2000)). Briefly, DC were generated in tissue culture from adherent monocytes that were cultured for 7 days in the presence of GM-CSF and IL-4. A total of (1×10^4) polypeptide-pulsed DC (10 μg/ml for 2 hr) were irradiated (4,200 rad) and co-cultured with 3×10^4 autologous purified CD4^+ T cells (using magnetic microbeads from Miltenyi Biotech) in each well of a 96-round bottom well culture plate. Seven days later, the cultures were restimulated with polypeptide-pulsed irradiated autologous PBMC and two days later, human rIL-2 was added at a final concentration of 10 IU/ml. After 7 days, the microcultures were tested for their proliferative responses to polypeptide as described below. Those micro-wells showing a proliferative response to polypeptide (at least 2.5 fold over background) were expanded in 24 or 48-well plates by weekly restimulation with polypeptides and irradiated autologous PBMC. In some instances T-cell lines were cloned by limiting dilution and used for further studies. […]
T cells (3×10^4/well) were mixed with irradiated APC in the presence of various concentrations of antigen (polypeptides, tumors or tumor lysates), in 96-well culture plates. […] The radioactivity incorporated into DNA, which correlates with cell proliferation, was measured in a liquid scintillation counter after harvesting the cell cultures onto glass fiber filters. […] The stimulation index (SI) was calculated by dividing the mean radioactivity (cpm) obtained in the presence of antigen by the mean radioactivity (cpm) obtained in the absence of antigen but in the presence of APC.

CD4+ T cells (HTL lines) [2] = assay: MHC restriction analysis of HTL proliferative response (anti-HLA-DR/-DQ blocking, HLA-transfected L-cells, LCL); settings: for ability to trigger HTL restricted by other alleles such as HLA-DR1 or -DR4: 2 experiments with cells from 2 donors; for MHC restriction of the induced CD4+ T-cell (HTL) proliferative response: anti-DR/anti-DQ antibody blocking, HLA-transfected L-cells, allogeneic LCL
Procedure: Polypeptides gp10074-89, gp100175-189 and gp100576-590 were tested for their capacity to stimulate CD4^+ T cells obtained from four healthy, MHC-typed individuals in primary in vitro cultures using polypeptide-pulsed autologous dendritic cells (DC). The method used to generate tumor antigen-reactive HTL lines and clones using polypeptide-stimulated peripheral blood mononuclear cells (PBMC) was recently described in detail (Kobayashi H et al., Cancer Res 60:5228 (2000)). Briefly, DC were generated in tissue culture from adherent monocytes that were cultured for 7 days in the presence of GM-CSF and IL-4. A total of (1×10^4) polypeptide-pulsed DC (10 μg/ml for 2 hr) were irradiated (4,200 rad) and co-cultured with 3×10^4 autologous purified CD4^+ T cells (using magnetic microbeads from Miltenyi Biotech) in each well of a 96-round bottom well culture plate. Seven days later, the cultures were restimulated with polypeptide-pulsed irradiated autologous PBMC and two days later, human rIL-2 was added at a final concentration of 10 IU/ml. After 7 days, the microcultures were tested for their proliferative responses to polypeptide as described below. Those micro-wells showing a proliferative response to polypeptide (at least 2.5 fold over background) were expanded in 24 or 48-well plates by weekly restimulation with polypeptides and irradiated autologous PBMC. In some instances T-cell lines were cloned by limiting dilution and used for further studies. Culture medium for all procedures consisted of RPMI-1640 supplemented with 5% human male AB serum, 0.1 mM MEM nonessential amino acids, 1 mM sodium pyruvate, 2 mM L-glutamine, and 50 μg/ml gentamicin.
T cells (3×10^4/well) were mixed with irradiated APC in the presence of various concentrations of antigen (polypeptides, tumors or tumor lysates), in 96-well culture plates. APC consisted of either PBMC (1×10^5/well), HLA-DR-expressing L-cells (3×10^4/well), EBV-LCL or melanoma tumor cells (3×10^4/well), pretreated with IFN-γ (500 U/ml for 48 h) to enhance MHC expression. Proliferation assays were incubated at 37° C. in a 5% CO2 incubator for 72 h and during the last 16 h, each well was pulsed with 0.5 μCi/well of [^3H]-thymidine (Amersham Pharmacia Biotech, Piscataway, N.J.). […] The radioactivity incorporated into DNA, which correlates with cell proliferation, was measured in a liquid scintillation counter after harvesting the cell cultures onto glass fiber filters. […] The stimulation index (SI) was calculated by dividing the mean radioactivity (cpm) obtained in the presence of antigen by the mean radioactivity (cpm) obtained in the absence of antigen but in the presence of APC.

[3] = test system: melanoma tumor cells or tumor lysates presented by APC; assay: Recognition of naturally processed antigen by polypeptide-reactive HTL (proliferation, GM-CSF/IFN-γ ELISA); settings: for HTL recognition of melanoma tumor cell lysates presented by autologous APC / HTL recognition of antigen presented directly by intact melanoma cells: HLA-DR7-restricted HTL lines; for HTL recognition of melanoma tumor cell lysates presented by autologous APC: 697 mel lysate; for HTL recognition of antigen presented directly by intact melanoma cells: HLA-DR7+ melanoma (HT-144); for recognition of naturally processed antigen by HTL reactive to the polypeptide: MHC class II positive melanomas or APC fed with tumor lysates
Text: Recognition of naturally processed antigen by polypeptide-reactive T-cells can be an important parameter to determine whether a predicted T-cell epitope can be used to elicit an immune response against tumor cells. HTL may recognize polypeptide/MHC class II complexes directly on tumor cells that are MHC class II positive and as a consequence the T-cells will become activated and produce cytokines that provide help to CTL or cytokines that may inhibit tumor cell growth.
T cells (3×10^4/well) were mixed with irradiated APC in the presence of various concentrations of antigen (polypeptides, tumors or tumor lysates), in 96-well culture plates. APC consisted of either PBMC (1×10^5/well), HLA-DR-expressing L-cells (3×10^4/well), EBV-LCL or melanoma tumor cells (3×10^4/well), pretreated with IFN-γ (500 U/ml for 48 h) to enhance MHC expression. Proliferation assays were incubated at 37° C. in a 5% CO2 incubator for 72 h and during the last 16 h, each well was pulsed with 0.5 μCi/well of [^3H]-thymidine (Amersham Pharmacia Biotech, Piscataway, N.J.). In some cases, culture supernatants were collected before the addition of [^3H]-thymidine for the determination of lymphokine production using ELISA kits (Pharmingen, San Diego, Calif.). The radioactivity incorporated into DNA, which correlates with cell proliferation, was measured in a liquid scintillation counter after harvesting the cell cultures onto glass fiber filters. […] The stimulation index (SI) was calculated by dividing the mean radioactivity (cpm) obtained in the presence of antigen by the mean radioactivity (cpm) obtained in the absence of antigen but in the presence of APC.

melanoma cells = assay: Antigen-specific cytotoxicity, JAM assay; settings: HLA-DQw6-restricted HTL; DQw6 positive melanoma cell line (1102 mel)
Procedure: The capacity of HTL lines and clones to kill tumor cells expressing the appropriate polypeptide/MHC complexes was evaluated using the JAM assay (Matzinger P, J Immunol Methods 145:185 (1991)), which measures the DNA retained by target living cells after incubation with effector T-cells. Briefly, target cells were labeled with of [^3H]-thymidine for 18 hrs in tissue culture. After washing and counting the cells, they were incubated at various effectors to target ratio in 96-well round-bottomed plates for 36 hours. The cultures were then harvested onto glass fiber filters, and the amount of radioactivity retained in DNA is measured in a scintillation counter. The percent cytotoxicity was calculated by the ratio of cpm obtained in the absence of T-cells over the cpm obtained in the presence of different amounts of T-cells X 100. All determinations were done in triplicates.

[4] = test system: PBMC from normal individuals; assay: In vitro immunization of PBMC using polypeptide-pulsed DC (CTL induction)
Text: See, Manici et al., J Exp Med 189:871 (1999); Fujita et al., Eur J Immunol 28:305 (1998); Zarour et al., Cancer Res 60:4946 (2000); Touloukian et al., J Immunol 164:3535 (2000); Zarour et al., Proc Natl Acad Sci USA 97:400 (2000); Yasukawa et al., Blood 92:3355 (1998).

Row | Substance | polypeptide concentration required to obtain 50% of the maximal proliferation (CD4+ T cells (HTL lines) [1]) [µg/mL] | affinity of T-cell response, higher than the response to polypeptide gp10074-89 (CD4+ T cells (HTL lines) [1]; by amount of polypeptide required to achieve 50% of maximal proliferative response) [fold] | ability to trigger HTL restricted by other alleles such as HLA-DR1 or -DR4 (CD4+ T cells (HTL lines) [2]) | MHC restriction of the induced CD4+ T-cell (HTL) proliferative response (CD4+ T cells (HTL lines) [2]) | HTL recognition of melanoma tumor cell lysates presented by autologous APC [3] | HTL recognition of antigen presented directly by intact melanoma cells [3] | recognition of naturally processed antigen by HTL reactive to the polypeptide [3] | cytotoxicity of polypeptide-reactive HTL (melanoma cells) | induction of anti-tumor CTL responses [4]
1 | SLAVVSTQLIMPGQE [gp100576-590] | ~0.04 | ~15 | not able to trigger | restricted by the HLA-DR7 allele | could not be detected | could not be detected | did not proliferate or produce lymphokines |  | 
2 | GRAMLGTHTMEVTVY [gp100175-189, GRAMLGTHTMEVTVY] |  |  |  |  |  |  |  | high levels of cytotoxicity | 
3 | gp100177-186: potent HLA-A2-restricted CTL epitope included in polypeptide gp100175-189 (AMLGTHTMEV; UniProt P40967 177-186, looked up, fragment) |  |  |  |  |  |  |  |  | very effective in inducing anti-tumor CTL responses
4 | GPTLIGANASFSIALN [gp10074-89] | ~0.6 |  | not able to trigger | restricted by the HLA-DR7 allele | efficient at recognizing tumor cell lysates | effective in recognizing antigen | can recognize naturally processed antigen; also recorded: capable of recognizing naturally processed antigen |  | 
